The values below come from US20260115185A1, “QUINOLINE DERIVATIVES WHICH ACT AS KAPPA-OPIOID RECEPTOR ANTAGONISTS” (The Scripps Research Institute, priority 2023, published 2026).

The target of assay [1] is T1, kappa opioid receptor (KOR) (Homo sapiens, UniProt P41145).
T1 construct: host or cells: U2OS (Tango OPRK1-bla U2OS)
The assay is described as follows: OPRKappa 1 Tango B-Arrestin Assay, antagonist mode (Tango OPRK1-bla U2OS cells, U50488 EC80 challenge). The class given is cell-based. The following applies: for Selectivity (MOR/KOR): Kappa selectivity, MOR IC50 / KOR IC50; for IC50: antagonist mode, Tango OPRK1-bla U2OS cells, 6 nM U50488 challenge. The gist of the method: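 Tango OPRK1-bla U2OS cells, β-arrestin recruitment read as β-lactamase FRET (CCF4-AM, 460/590 nm emission). Compounds, 10-point 1:3 series from nominal 10 µM in quadruplicate, preincubated 30 min at 37 °C, then challenged with U50488 at 6 nM final (EC80) for 4 h; percent inhibition from median ratio.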

The next assay concerns the target T2, mu opioid receptor (MOR) (Homo sapiens, UniProt P35372).
T2 construct: host or cells: U2OS (Discover X OPRMu1-U2OS, PathHunter)
In words: OPRMu1 Discover X β-arrestin Assay, antagonist mode (U2OS cells, DAMGO EC80 challenge). In kind it is cell-based. A digest of the protocol:
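PathHunter U2OS cells with β-gal fragment-complementation readout for β-arrestin recruitment to OPRMu1. Cells were preincubated with compound (10-point, 1:3 series from nominal 10 micromolar) for 30 min at 37 °C, then challenged with 303 nM DAMGO (EC80) for 3 h. Luminescence gave percent inhibition.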

T2 sequence (P35372 whole entry): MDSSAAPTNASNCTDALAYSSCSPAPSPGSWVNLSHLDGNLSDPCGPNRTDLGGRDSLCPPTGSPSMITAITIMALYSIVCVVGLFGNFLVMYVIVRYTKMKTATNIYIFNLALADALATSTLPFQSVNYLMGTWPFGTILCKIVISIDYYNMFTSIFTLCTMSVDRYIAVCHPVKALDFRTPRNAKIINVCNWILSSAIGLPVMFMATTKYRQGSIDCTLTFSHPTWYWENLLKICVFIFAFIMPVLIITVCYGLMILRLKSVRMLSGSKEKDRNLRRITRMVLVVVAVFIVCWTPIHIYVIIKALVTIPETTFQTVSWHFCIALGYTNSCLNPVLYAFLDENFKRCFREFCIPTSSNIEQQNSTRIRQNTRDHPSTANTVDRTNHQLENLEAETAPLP
T1 sequence (P41145 whole entry): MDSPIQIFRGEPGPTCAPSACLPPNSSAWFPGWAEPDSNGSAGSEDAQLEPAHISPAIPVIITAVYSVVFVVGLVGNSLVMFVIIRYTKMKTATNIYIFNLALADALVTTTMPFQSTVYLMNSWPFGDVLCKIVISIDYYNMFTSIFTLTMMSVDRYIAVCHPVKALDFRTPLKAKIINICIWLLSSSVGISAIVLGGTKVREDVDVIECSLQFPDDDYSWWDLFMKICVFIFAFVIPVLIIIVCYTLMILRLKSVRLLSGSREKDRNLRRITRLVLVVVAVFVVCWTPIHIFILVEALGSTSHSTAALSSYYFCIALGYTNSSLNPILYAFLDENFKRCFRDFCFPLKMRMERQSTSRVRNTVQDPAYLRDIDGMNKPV

`CCc1cc(F)c2nc(N3CC[C@@H](N[C@@H]4CCOC4)[C@@H](F)C3)c(-c3ccn(C)n3)c(C)c2c1` [Compound 192, (3S,4R)-1-(6-ethyl-8-fluoro-4-methyl-3-(1-methyl-1H-pyrazol-3-yl)quinolin-2-yl)-3-fluoro-N—((R)-tetrahydrofuran-3-yl)piperidin-4-amine]: in assay [1], the “Selectivity (MOR/KOR)” value is recorded as “++++ (more than 1000-fold selectivity over MOR)” and the IC50 is below 1 nM. This molecule came in with an IC50 against mu opioid receptor (MOR) above 1000 nM.
For `CCc1cc(F)c2nc(N3CC[C@@H](N[C@H]4CCOC4)[C@@H](F)C3)c(-c3ccn(C)n3)c(C)c2c1` [Compound 193, (3S,4R)-1-(6-ethyl-8-fluoro-4-methyl-3-(1-methyl-1H-pyrazol-3-yl)quinolin-2-yl)-3-fluoro-N—((S)-tetrahydrofuran-3-yl)piperidin-4-amine], in assay [1], the “Selectivity (MOR/KOR)” value is given as “++++ (more than 1000-fold selectivity over MOR)” and the IC50 was below 1 nM. Further, at mu opioid receptor (MOR), the IC50 is above 1000 nM.
Taken in the same sequence, the figures for `CCc1cc(F)c2nc(N3CC[C@H](N[C@@H]4CCOC4)[C@H](F)C3)c(-c3ccn(C)n3)c(C)c2c1` [Compound 194, (3R,4S)-1-(6-ethyl-8-fluoro-4-methyl-3-(1-methyl-1H-pyrazol-3-yl)quinolin-2-yl)-3-fluoro-N—((R)-tetrahydrofuran-3-yl)piperidin-4-amine] were “+++ (between 100- to 1000-fold selective)”, 1 to 10 nM and above 1000 nM.
As for `CCc1cc(F)c2nc(N3CC[C@H](N[C@@H]4CCOC4)[C@@H](F)C3)c(-c3ccn(C)n3)c(C)c2c1` [Compound 195, (3S,4S)-1-(6-ethyl-8-fluoro-4-methyl-3-(1-methyl-1H-pyrazol-3-yl)quinolin-2-yl)-3-fluoro-N—((R)-tetrahydrofuran-3-yl)piperidin-4-amine], in assay [1], the “Selectivity (MOR/KOR)” value is listed as “++++ (more than 1000-fold selectivity over MOR)” and the half-maximal inhibitory concentration (IC50) was 1 to 10 nM. This molecule showed an IC50 against mu opioid receptor (MOR) above 1000 nM.
Regarding `CCc1cc(F)c2nc(N3CC[C@@H](N[C@@H]4CCOC4)[C@H](F)C3)c(-c3ccn(C)n3)c(C)c2c1` [Compound 196, (3R,4R)-1-(6-ethyl-8-fluoro-4-methyl-3-(1-methyl-1H-pyrazol-3-yl)quinolin-2-yl)-3-fluoro-N—((R)-tetrahydrofuran-3-yl)piperidin-4-amine], in assay [1], the “Selectivity (MOR/KOR)” value is recorded as “+++ (between 100- to 1000-fold selective)” and the IC50 was in the range of 1 to 10 nM. Moreover, on mu opioid receptor (MOR), the IC50 was above 1000 nM.
Regarding `CCc1cc(F)c2nc(N3CCN(C(C)C4CCOCC4)C[C@H]3C)c(-c3nc(C)no3)c(C)c2c1` (stereo partly drawn) [Compound 199, 5-(6-ethyl-8-fluoro-4-methyl-2-((2R)-2-methyl-4-(1-(tetrahydro-2H-pyran-4-yl)ethyl)piperazin-1-yl)quinolin-3-yl)-3-methyl-1,2,4-oxadiazole], in assay [1], the “Selectivity (MOR/KOR)” value is reported as “++++ (more than 1000-fold selectivity over MOR)” and the IC50 lay within 10 to 100 nM. The molecule also displayed an IC50 on mu opioid receptor (MOR) above 1000 nM.
Taken in the same sequence, the figures for `CCc1cc(F)c2nc(N3CCN(C(=O)[C@H]4CC(F)(F)CCN4)C[C@H]3C)c(-c3nc(C)no3)c(C)c2c1` [Compound 200] were “+++ (between 100- to 1000-fold selective)”, 1 to 10 nM and above 1000 nM.
On to `CCc1cc(F)c2nc(N3CCN(C(=O)[C@H](C)N4CCCC4)C[C@H]3C)c(-c3nc(C)no3)c(C)c2c1` [Compound 201], for which, in assay [1], the “Selectivity (MOR/KOR)” value is listed as “+++ (between 100- to 1000-fold selective)” and the IC50 lay within 1 to 10 nM. Also, the IC50 against mu opioid receptor (MOR) was 100 to 1000 nM.
For `CCc1cc(F)c2nc(N3CCN(C[C@H]4CCOC4)C[C@H]3C)c(-c3nc(C)no3)c(C)c2c1` [Compound 202], in that order: “++++ (more than 1000-fold selectivity over MOR)”, 1 to 10 nM and above 1000 nM.
For `CCc1cc(F)c2nc(N3CCN(C[C@@H]4CCOC4)C[C@H]3C)c(-c3nc(C)no3)c(C)c2c1` [Compound 203], in that order: “+++ (between 100- to 1000-fold selective)”, 10 to 100 nM and above 1000 nM.

In general, IC50 refers to the point on the concentration scale where inhibition reaches its midpoint. A low value points to greater potency in that assay.
